In patent US10821127B2, “Composition for inhibiting myeloid-derived suppressor cells comprising decitabine or its pharmaceutically acceptable salt as active ingredient” (SNU R&DB Foundation, priority 2015, dated 2020):

Columns and labels:
VEGF = experiment: Cytokine expression in tumor cells after decitabine treatment, PCR (Example 7): VEGF; type: cell-based; conditions: MC38 expressing the CEA gene, 0, 10, 100 nM, 48 hours; FIG. 14
Method: (§1) In order to verify a possibility of a result that the MDSC creation itself in the bone marrow is decreased by the tumor cells, in addition to a direct apoptotic effect of the MDSC by the reduction of the MDSC cell population caused by the decitabine, an expression change in cytokines inducing the creation of the MDSC cell population after treating the decitabine in the tumor cells was measured.
(§2) Particularly, the decitabine was treated in each well for each concentration 0, 10, 100 nM in a colon cancer cell line MC38 expressing the CEA gene which was cultured for 1 week in a 6-well plate and cultured for 48 hours, and then the cells were collected. Thereafter, from the collected cells, total RNA was isolated by using a trizol reagent (Invitrogen, Carlsbad, Calif.) and then the isolated RNA 5 μg reacted with reverse transcriptase for 1 hour at 42° C. to synthesize a cDNA and 5 minutes at 95° C. to inactivate the enzyme. Polymerase chain reaction (PCR) was performed by using a primer in the following Table 1 by using the cDNA as a template of PCR and a PCR product was electrophoresed with an agarose gel and visualized to confirm expression of IL-6, IFN-γ and VEGF genes.

[1] = test system: granulocytic, monokaryotic and MDSC cell populations in the bone marrow; experiment: Number of cells of subpopulations of myeloid-based cell population in bone marrow of tumorigenic mice (Example 5-2); type: in vivo, mouse
Method: (§3) Particularly, in the tumorigenic mice prepared in Example 1, decitabine (DAC) or gemcitabine (GEM) were diluted with 100 μl PBS to be 0, 0.25, 0.5 mg/kg per mouse, administrated in the right abdominal cavity (every 2 days and a total of 10 times) for each concentration, and then sacrificed to extract the spleen and the bone marrow. Thereafter, spleen cells and bone marrow cells were extracted and stained by a trypan blue staining method and then the number of cells was measured by using a hematocytometer.
(§4) In order to verify an effect of decitabine or gemcitabine on cells of a subpopulation of myeloid-based cell populations in the bone marrow, decitabine and gemcitabine were administrated to the tumorigenic mice prepared in Example 1 and then the numbers of cells in a granulocytic cell population, a monokaryotic cell population, and an MDSC cell population in the bone marrow were measured.
(§5) Particularly, by the method disclosed in Example 3, decitabine (DAC) or gemcitabine (GEM) was administrated and then the bone marrow was extracted. Thereafter, the bone marrow was stained by using the antibodies disclosed in Example 4-2, and then the number of cells was measured through a flow cytometer (FIGS. 11 to 12).

[2] = test system: granulocytic, monokaryotic and MDSC cell populations in the spleen; experiment: Number of cells of subpopulations of myeloid-based cell population in spleen of tumorigenic mice (Example 4-2); type: in vivo, mouse
Method: as §3
as §4, with “populations in the spleen and the bone” for “populations in the bone”, “cell population were measured.” for “cell population in the bone marrow were measured.”
Particularly, by the method disclosed in Example 3, decitabine (DAC) or gemcitabine (GEM) was administrated and then the spleen was extracted. Thereafter, monokaryotic and granulocytic cell populations were stained with fluorescence-bound antibodies purchased by BD Corporation and then the numbers of cells were measured through a flow cytometer.
In order to measure the numbers of cell in the monokaryotic cell population and the granulocytic cell population, anti-CD11b, anti-F480 and anti-Gr1 antibodies were used (FIG. 6).
In order to measure the number of cells of the subpopulation of the MDSC cell population, anti-CD11b, anti-Ly6c and anti-Ly6g antibodies were used (FIG. 7).

IL-6 = experiment: Cytokine expression in tumor cells after decitabine treatment, PCR (Example 7): IL-6; type: cell-based; conditions: MC38 expressing the CEA gene, 0, 10, 100 nM, 48 hours; FIG. 14
Method: as §1, §2

[3] = test system: myeloid-derived suppressor cells; experiment: Dose with MDSC suppression effect in tumorigenic mice; type: in vivo
Method: In the preferred embodiment of the present invention, the inventors verified that in order to verify whether the decitabine suppresses the myeloid-derived suppressor cells produced from the bone marrow by the tumor, tumorigenic mice were prepared and the decitabine was administrated for each concentration, and as a result, an effect of suppressing the myeloid-derived suppressor cells by the decitabine is excellent in a dose range of 0.5 to 1 mg/kg.
Accordingly, through Examples 1 to 8, it was verified that the decitabine had excellent effects of suppressing the MDSC and inducing the apoptosis as compared with the gemcitabine and may enhance the effect of a cancer immunotherapy. Further, when the decitabine has an excellent MDSC suppression effect at 0.5 mg/kg and a fifth part to a tenth part of an effective dose (5.25 mg/kg/once, 34 mg/kg/cycle) applied to an actual patient is compared with an effective dose of 120 mg/kg at which the gemcitabine has the MDSC suppression effect, it was verified that the effective dose is a low concentration of a hundredth part or more.

[4] = test system: colon cancer cell line MC38 expressing a human CEA gene; type: in vivo, mouse; conditions: every 2 days, total of 10 times
Method: (§6) 150 μl PBS including a colon cancer cell line MC38 1.5×10^6 expressing a human CEA gene was injected hypodermically to the right flank of a 7 to 8-week-old female B6 mouse to form a tumor. The mouse was bred in a Seoul National University laboratory under a temperature of 23.5±1° C. and a humidity of 50±5% in a light/dark cycle of 12 hours. All animal experiments followed the guideline of the Animal Ethics Committee of Seoul National University.
It was verified whether decitabine was usable as an anticancer chemotherapy through immune treatment based on a bone marrow-based specific drug effect. First, in order to verify an effect of the decitabine on the tumorigenic mice, the decitabine was administrated to the tumorigenic mice prepared in Example 1 and then changes in tumor size and survival rate were measured.
Particularly, in the tumorigenic mice prepared in Example 1, decitabine (DAC) at a concentration of 40 mg/ml purchased from Sigma Co., Ltd. was diluted with 100 μl PBS to be 0, 0.125, 0.25, 0.5, and 1 mg/kg per mouse and then administrated in the right abdominal cavity (every 2 days and a total of 10 times) for each concentration to verify the tumor size and the survival rate. The tumor size was calculated by the following Equation after measuring a width and a length of a tumor mass at an interval of 2 to 3 days from the time when 10 days elapsed after injecting tumor cells: Long length×short length×short length/2. In the survival rate, the number of surviving mice in each group was calculated by the following Equation: The number of surviving mice/a total number of mice×100

MDSC cell population = experiment: In vitro apoptosis of MDSC cell population, bone marrow stem cells co-cultured with MC38 in Transwell (Example 6); type: cell-based, mouse; conditions: 50 nM, as compared with the gemcitabine; FIG. 13
Method: In order to verify effects of decitabine and gemcitabine on apoptosis of an MDSC cell population, the decitabine or the gemcitabine was treated in vitro and then a change in the number of cells in the MDSC cell population was measured.
Particularly, from the tumorigenic mice prepared in Example 1, the bone marrow was extracted and then bone marrow stem cells were isolated. Thereafter, while the bone marrow stem cells in a bottom well and cells of a colon cancer cell line MC38 expressing a CEA gene were co-cultured in an insert well […] with a DMEM culture medium by using a Transwell system, the decitabine and the gemcitabine of concentrations of 50 nM were treated at a third day after cell culture, respectively, and then cells after two days were collected. Thereafter, in order to measure the numbers of cells in the myeloid-based cell population and the MDSC cell population, the cell populations were stained by using an anti-CD11b antibody and an anti-GR1 antibody and then the number of cells was measured through a flow cytometer.

[5] = test system: immune cells in the bone marrow; experiment: Number of immune cells in bone marrow of tumorigenic mice, flow cytometer (Example 5-1); type: in vivo, mouse; conditions: for number of T cell populations CD3+ and CD3+CD4+ in the bone marrow: FIG. 8
Method: as §3
(§7) In order to verify effects of decitabine and gemcitabine on immune cells in the bone marrow, the decitabine and the gemcitabine were administrated to the tumorigenic mice prepared in Example 1 and then the numbers of cells in a T cell population, a B cell population, an NK cell population, an NKT cell population, and a myeloid-based cell population in the bone marrow were measured.
as §5, with “4-1,” for “4-2,”, “8” for “11”, “10).” for “12).”

[6] = test system: immune cells in the spleen; experiment: Number of immune cells in spleen of tumorigenic mice, flow cytometer (Example 4-1); type: in vivo, mouse; conditions: for T cell populations CD3+, CD3+CD4+, CD3+CD8+ in the spleen: 0, 0.25, 0.5 mg/kg intraperitoneal, FIG. 3
Method: as §3
as §7, with “spleen,” for “bone marrow,”, “spleen” for “bone marrow”
Particularly, by the method disclosed in Example 3, decitabine (DAC) or gemcitabine (GEM) was administrated and then the spleen was extracted. Thereafter, each immune cell population were stained with fluorescence-bound antibodies purchased by BD Corporation and then the number of cells was measured through a flow cytometer.
In order to measure the number of cells in the T cell population, an anti-CD3 antibody, an anti-CD4 antibody, and an anti-CD8 antibody were used (FIG. 3).
In order to the number of cells in the B cell population, an anti-B220 antibody was used. Further, in order to measure the number of cells in the NK and NKT cell populations, anti-CD3 and anti-NK1.1 antibodies were used (FIG. 4).
In order to measure the number of cells in the myeloid-based cell population, an anti-CD11b antibody and an anti-CD11c antibody were used (FIG. 5).

IFN-γ = experiment: Cytokine expression in tumor cells after decitabine treatment, PCR (Example 7): IFN-γ; type: cell-based; conditions: MC38 expressing the CEA gene, 0, 10, 100 nM, 48 hours; FIG. 14
Method: as §1, §2

[7] = test system: cells in the spleen and the bone marrow; experiment: Number of cells in spleen and bone marrow of tumorigenic mice, trypan blue staining (Example 3); type: in vivo, mouse; conditions: intraperitoneal, every 2 days, 10 times; for number of bone marrow cells: 0, 0.25, 0.5 mg/kg, FIG. 2 right
Method: as §6
It was well-known that gemcitabine suppressed myeloid-derived suppressor cells (MDSC) derived from the tumor (Clin Cancer Res 2005; 11(18) Sep. 15, 2005), and the gemcitabine has been used as an anticancer chemotherapeutic agent. Accordingly, whether the decitabine is usable as an anticancer chemotherapeutic agent like the gemcitabine was verified through the comparison with the gemcitabine. First, in order to verify effects of decitabine and gemcitabine on cells in the spleen and the bone marrow, the decitabine and the gemcitabine were administrated to the tumorigenic mice prepared in Example 1 and then the number of cells in the spleen and the bone marrow was measured.
as §3

MDSC = conditions: preclinical model; gemcitabine: spleen of tumor-induced mice (Clin Cancer Res 2005; 11: 6713-6721); cited from earlier work
[8] = test system: myeloid-derived suppressor cells; conditions: gemcitabine comparison dose; cited from earlier work
[9] = compared with the gemcitabine, FIG. 11
[10] = similarly to the gemcitabine, FIG. 6
[11] = 0, 0.125, 0.25, 0.5, 1 mg/kg, right abdominal cavity, FIG. 1
[12] = at a lower concentration than gemcitabine, FIG. 4

Nc1ncn([C@H]2C[C@H](O)[C@@H](CO)O2)c(=O)n1 [decitabine, 5-aza-2′-deoxycytidine]
creation degree (expression) of VEGF in the tumor (VEGF): reduced | granulocytic cell population CD11b+F480-Gr1hi in the bone marrow [1, 9]: more rapid reduction | monokaryotic cell population CD11b+F480+Gr1- in the bone marrow [1, 9]: more rapid reduction | subpopulations CD11b+Ly6c+Ly6g+ and CD11b+Ly6chi of the MDSC cell population in the bone marrow ([1]; to a much higher degree than the gemcitabine, FIG. 12): rapid reduction | granulocytic cell population CD11b+F480-Gr1hi in the spleen [2, 10]: rapid reduction | monokaryotic cell population CD11b+F480+Gr1- in the spleen [2, 10]: rapid reduction | subpopulations CD11b+Ly6c+Ly6g+, CD11b+Ly6chi of the MDSC cell population in the spleen ([2]; to the degree of similar to or higher than the gemcitabine, FIG. 7): rapid reduction | creation degree (expression) of IL-6 in the tumor (IL-6): reduced | dose with excellent MDSC suppression effect [3]: 0.5 mg/kg | survival rate [4, 11]: no difference | tumor size [4, 11]: no difference | toxicity induction by repeated administration ([4]; up to 1 mg/kg): exclude a toxicity induction possibility | number of cells in the MDSC cell population in vitro (MDSC cell population): rapid reduction | number of T cell populations CD3+ and CD3+CD4+ in the bone marrow [5]: increased | NK cell population CD3-NK1.1+ in the bone marrow, significant changes ([5]; FIG. 9): not induced | NKT cell population CD3+NK1.1+ in the bone marrow, significant changes ([5]; FIG. 9): not induced | B cell population B220+ in the bone marrow ([5]; as compared with the gemcitabine, FIG. 9): reduction | myeloid-based cell populations CD11b+ and CD11c+ in the bone marrow ([5]; as compared with the gemcitabine, FIG. 10): rapid reduction | T cell populations CD3+, CD3+CD4+, CD3+CD8+ in the spleen [6]: slight | NKT cell population CD3+NK1.1+ in the spleen, significant change ([6]; FIG. 4): not induced | myeloid-based cell populations CD11b+ and CD11c+ in the spleen ([6]; as compared with the gemcitabine, FIG. 5): rapid reduction | B cell population B220+ in the spleen [6, 12]: reduction | NK cell population CD3-NK1.1+ in the spleen [6, 12]: reduction | creation degree (expression) of IFN-γ in the tumor (IFN-γ): reduced | number of bone marrow cells [7]: not significantly exhibited | number of spleen cells ([7]; dose concentration 0.5 mg/kg, FIG. 2 left): significantly reduced

O=c1[nH]cc(F)c(=O)[nH]1 [5-FU, 5-fluorouracil]
number of MDSC (MDSC): significantly reduces

Nc1ccn([C@@H]2O[C@H](CO)[C@@H](O)C2(F)F)c(=O)n1 [gemcitabine]
number of MDSC (MDSC): significantly reduces | number of T cell populations CD3+ and CD3+CD4+ in the bone marrow [5]: increased | T cell populations CD3+, CD3+CD4+, CD3+CD8+ in the spleen [6]: rapid reduction | number of bone marrow cells [7]: increased in a concentration-dependent manner | effective dose with MDSC suppression effect [8]: 120 mg/kg
